Test results taken from patent US6503940B2, “Prodrugs for antimicrobial amidines” (The University of North Carolina at Chapel Hill, priority 1999, dated 2003).

Columns and labels:
[1] = Toxicity observed in rats of the anti-PCP screening; conditions: rat
Method: (§1) In the examples which follow, melting points were recorded using a Thomas-Hoover (Uni-Melt) capillary melting point apparatus and were uncorrected. TLC analysis was carried out on silica gel 60 F254 pre-coated aluminum sheets (0.20 mm layer thickness) (E. Merck of Whitehouse Station, N.J.) and detected under UV light. IR spectra were recorded using Perkin-Elmer Model 337 spectrometer sold by Perkin-Elmer of Norwalk, Conn. ^1H and ^13C NMR spectra were recorded employing a Varian GX400 or a Varian Unityplus 300 spectrometer (both sold by Varian of Palo Alto, Calif.) and chemical shifts (δ) are in ppm relative to TMS as internal standard. Mass Spectra were recorded on a VG Analytical 70-SE spectrometer (Georgia Institute of Technology, Atlanta, Ga.). IR spectra were recorded using a Perkin-Elmer 2000 instrument. […] All chloroformates were purchased from Aldrich Chemical Co. of St. Louis, Mo. Other chemicals and solvents were purchased from either Aldrich or Fischer Scientific of Houston, Tex. […] See Baijic, M., et al., Heterocycl. Commun., 1996, 2, pp. 135-140; Das, B. P., J. Med. Chem. 1977, 20, pp. 531-536; and Boykin, D. W., et al., Bioorg. Med. Chem Lett., 1996, 6, pp. 3017-3020. Anti-Pneumocystis carinii pneumonia activity screening was carried out according to published methods. See Jones, S. K. et al., Antimicrob. Agents Chemother., 1990, 34, pp. 1026-1030; Hall, J. E., et al., Antimicrob. Agents Chemother., 1998, 42, pp. 666-674; and Tidwell, R. R., et al., J. Med. Chem., 1990, 33, pp. 1252-1257. Compounds were routinely tested orally at 33 μmol/kg/day and intravenously at 22 μmol/kg/day. Saline- and pentamidine treated groups of rats were included as negative and positive controls, respectively.

Pneumocystis carinii [2] = experiment: Anti-Pneumocystis carinii pneumonia activity in immunosuppressed rat model; type: in vivo
Method: as §1

Pneumocystis carinii [3] = experiment: as above; type: in vivo; remark: listed apart in the source

Molecule	Toxicity ([1]; Oral @ 33.0 μmol/kg/day)	Toxicity ([1]; iv @ 22.0 μmol/kg/day)	Cysts/g of lung (% of control) (Pneumocystis carinii [2]; Oral @ 33.0 μmol/kg/day)	Cysts/g of lung (% of control) (Pneumocystis carinii [2]; iv @ 22.0 μmol/kg/day)	further results
2,5-bis[4-(N-2,2,2-trichloroethoxycarbonyl)amidinophenyl]furan [Compound 3]	0	0	8.59 ± 9.14 % of control	1.85 ± 1.79 % of control	
[H]/N=C(\N)c1ccc(-c2ccc(-c3ccc(/C(N)=N/[H])cc3)o2)cc1 [Compound 1, 2,5-Bis(4-amidinophenyl)furan, reference compound]					Toxicity ([1]; Oral @ 39.8 μmol/kg/day): 0; Toxicity ([1]; iv @ 13.3 μmol/kg/day): 0; Cysts/g of lung (% of control) (Pneumocystis carinii [3]; Oral @ 39.8 μmol/kg/day): 44.52 ± 13.30 % of control; Cysts/g of lung (% of control) (Pneumocystis carinii [3]; iv @ 13.3 μmol/kg/day): 0.83 ± 0.36 % of control
COC(=O)NC(=N)c1ccc(-c2ccc(-c3ccc(C(=N)NC(=O)OC)cc3)o2)cc1 [Compound 2, 2,5-Bis[4-(N-methoxycarbonyl)amidinophenyl]furan]	0	0	49.68 ± 20.50 % of control	6.91 ± 6.01 % of control	
CCSC(=O)N=C(N)c1ccc(-c2ccc(-c3ccc(C(N)=NC(=O)SCC)cc3)o2)cc1 [Compound 4, 2,5-bis[4-(N-thioethylcarbonyl)amidinophenyl]furan]	0	0	19.52 ± 14.22 % of control	83.01 ± 43.65 % of control	
NC(=NC(=O)OCc1ccccc1)c1ccc(-c2ccc(-c3ccc(C(N)=NC(=O)OCc4ccccc4)cc3)o2)cc1 [Compound 5, 2,5-bis[4-(N-benzyloxycarbonyl)amidinophenyl]furan]			18.09 ± 9.16 % of control		Cysts/g of lung (% of control) (Pneumocystis carinii [3]; iv @ 11.0 μmol/kg/day): 0.03 ± 0.02 % of control
Cc1oc(=O)oc1COC(=O)N=C(N)c1ccc(-c2ccc(-c3ccc(C(N)=NC(=O)OCc4oc(=O)oc4C)cc3)o2)cc1 [Compound 6, 2,5-bis{4-[N-(5-methyl-2-oxo-1,3-dioxol-4-ene-1-yl)methoxycarbonyl]amidinophenyl}furan]	0	0	18.73 ± 11.87 % of control	0.02 ± 0.01 % of control	
NC(=NC(=O)Oc1ccccc1)c1ccc(-c2ccc(-c3ccc(C(N)=NC(=O)Oc4ccccc4)cc3)o2)cc1 [Compound 7, 2,5-Bis[4-(N-phenoxycarbonyl)amidinophenyl]furan]	0	0	5.70 ± 5.15 % of control	3.61 ± 1.80 % of control	
NC(=NC(=O)Oc1ccc(F)cc1)c1ccc(-c2ccc(-c3ccc(C(N)=NC(=O)Oc4ccc(F)cc4)cc3)o2)cc1 [Compound 8, 2,5-bis[4-(N-(4-fluoro)phenoxycarbonyl)amidinophenyl]furan]	0	0	2.21 ± 0.33 % of control	0.02 ± 0.01 % of control	
COc1ccc(OC(=O)N=C(N)c2ccc(-c3ccc(-c4ccc(C(N)=NC(=O)Oc5ccc(OC)cc5)cc4)o3)cc2)cc1 [Compound 9, 2,5-bis[4-(N-(4-methoxy)phenoxycarbonyl)amidinophenyl]furan]	0	0	2.10 ± 2.08 % of control	0.02 ± 0.01 % of control	
CC(=O)OC(C)OC(=O)NC(=N)c1ccc(-c2ccc(-c3ccc(C(=N)NC(=O)OC(C)OC(C)=O)cc3)o2)cc1 (stereo not drawn) [Compound 10, 2,5-bis[4(1-Acetoxyethoxycarbonyl)amidinophenyl]furan]	0		57.16 ± 10.19 % of control		Cysts/g of lung (% of control) (Pneumocystis carinii [3]; iv @ 11.0 μmol/kg/day): 1.21 ± 1.02 % of control
CCOC(=O)ON=C(N)c1ccc(-c2ccc(-c3ccc(C(N)=NOC(=O)OCC)cc3)o2)cc1 [Compound 11, 2,5-bis[4(N-ethoxycarbonyloxy)amidinophenyl]furan]	0		96.90 ± 48.48 % of control		Toxicity ([1]; iv @ 34.7 μmol/kg/day): 0; Cysts/g of lung (% of control) (Pneumocystis carinii [3]; iv @ 34.7 μmol/kg/day): 1.66 ± 0.58 % of control
N=C(N)c1ccc(OCCCCCOc2ccc(C(=N)N)cc2)cc1 [Pentamidine, 1,5-bis(4-amidinophenoxy)pentane, reference compound]				3.06 ± 0.90 % of control	
